Data reported in patent US20140142170A1, “COMPOSITION AND METHOD FOR INFLUENCING ENERGY METABOLISM AND TREATING METABOLIC AND OTHER DISORDERS” (SIRTUIN VALLEY OY, priority 2010, published 2014).
“Also recorded” adds a separate entry of the source.

What was measured:
SIRT1 [1] = assay: SIRT1 protein expression, immunoblot and densitometry in 3T3 L1 preadipocytes; type: cell-based; conditions: 3T3 L1 preadipocytes, 60 μM, 24 hours; for SIRT1 protein expression, Derivative vs. GR24: derivative compared to GR24 (=100%)
Experimental: (§1) 3T3L1 cells were purchased from American Type Culture Collection (Manassas, Va., USA) and cultured in DMEM media containing 4.5 g/l glucose supplemented with 10% fetal bovine serum (Hyclone), 2 mM L-glutamine (Gibco), 100 U/ml penicillin, and 100 μg/ml streptomycin (Gibco). The cells were cultured at 37° C. in a humidified atmosphere with 10% CO2.
(§2) The 3T3L1 cells were plated at 6×10^4 cells/well in 12 well plates and incubated at 37° C. in a humidified atmosphere with 10% CO2. The media was removed after 24 hours and the cells were treated with 60 μM GR24 individually and in combination with 60 resveratrol and 60 μM pinosylvin, and incubated for 24 hours at 37° C. in a humidified atmosphere with 10% CO2. The media was removed, cells were washed with PBS, and cell lysates were collected on ice. Proteins were extracted using RIPA buffer along with protease and phosphatase inhibitors. Lysates were centrifuged for 30 min at high speed; supernatant was collected and stored at […] until further analysis. The vehicle controls were 3T3 L1 cells without any treatment with drugs or other compounds. The drugs or compounds that were used in all the experiments were dissolved or diluted in dimethylsulfoxide (DMSO) as diluent. In all experiments, the controls were treated with the same volume of DMSO as was used to dissolve drugs or compounds in compound-treated cells to show and ensure that the actual change in protein expression in different treatments was due solely to the compounds or combination of compounds and not to the DMSO.
(§3) Protein concentrations were measured using a BCA (bicinchoninic acid) protein assay kit (Cat.#23225; Pierce, Rockford, Ill.). Twenty (20) μg/lane of total cellular protein samples containing NuPAGE LDS sample buffer (Invitrogen) and reducing agent were loaded into 4-12% NuPAGE Bis-Tris gels (Invitrogen), subjected to gel electrophoresis, and transferred to polyvinylidene fluoride membranes (Amersham). For SIRT1 proteins, membranes were blocked in 0.05% TBS-Tween with 3% milk for 1 hour, incubated overnight at +4° C. with SIRT1 primary antibodies (Cat.#07-131, Millipore). For phospho-AMPKα and AMPKα proteins, blocking was done for 1 hour in 0.1% TBS-Tween with 5% milk. The membranes were incubated overnight at +4° C. with phospho-AMPKα (Cat. #2535, Cell Signaling) and AMPKα (Cat.#2532, Cell Signaling) primary antibodies. Horseradish peroxidase-conjugated anti-rabbit antibodies (Cat. #NA934V GE Health Care, Amersham, U.K) were used as secondary antibodies. For α-tubulin (loading control), membranes were blocked in 0.05% PBS-Tween with 3% milk for 1 hour, incubated with α-tubulin (Cat.# B-5-1-2, Sigma) primary antibodies for 1 hour at room temperature and horseradish peroxidase-conjugated anti-mouse (Cat. # NA 931V GE Health Care, Amersham, U.K.) IgG antibodies were used as secondary antibodies.
(§4) The membranes were developed using chemiluminescence (ECL plus, GE Health Care), and images were captured in an Image Quant RT-ECL machine (version 1.0.1; GE Health Care). Densitometry and quantification of the bands were done by applying Quantity One software (Bio-Rad). The expression levels of the proteins were normalized to α-tubulin protein levels.
3T3L1 cells were purchased from American Type Culture Collection (Manassas, Va., USA) and cultured in DMEM media containing 4.5 g/l glucose supplemented with 10% fetal bovine serum (Hyclone), 2 mM L-glutamine (Gibco) and 100 U/ml penicillin, 100 μg/ml streptomycin (Gibco). The cells were cultured at 37° C. in a humidified atmosphere with 10% CO2. 3T3L1 preadipocytes were plated at 1×10^5 cells/well in 6 well plates and incubated at 37° C. in a humidified atmosphere with 10% CO2. […] In all experiments, the controls were treated with the same volume of DMSO as was used to dissolve compounds in compound-treated cells to show and ensure that the actual change in protein expression in different treatments was only due to the compounds DMSO. […]

PGC-1α = PGC-1α protein expression, immunoblot and densitometry in 3T3 L1 preadipocytes; type: cell-based; conditions: 60 μM, 24 hours; for PGC-1α protein expression, Derivative vs. GR24: derivative compared to GR24 (=100%)
Experimental: as §1, with “CO2. […]” for “CO2.”
as §3, §4
PGC-1α as an indicator of SIRT1 activity: PGC-1α has been extensively described as a master regulator of mitochondrial biogenesis. […] When SIRT1 protein expression is induced, it interacts with and deacetylates PGC-1α in an NAD-dependent manner. Thus SIRT1 acts as a modulator of PGC-1a (Rodgers J T et al, Nature 2005). The effects of resveratrol, a nonselective SIRT1 activator, were associated with an induction of genes for oxidative phosphorylation and mitochondrial biogenesis, and were largely explained by a resveratrol-mediated decrease in PGC-1α acetylation and an increase in PGC-1α activity (Lagouge M, Cell 2006). Therefore, PGC-1α protein expression serves as an indicator of SIRT1 activity.
3T3L1 cells were purchased from American Type Culture Collection (Manassas, Va., USA) and cultured in DMEM media containing 4.5 g/l glucose supplemented with 10% fetal bovine serum (Hyclone), 2 mM L-glutamine (Gibco) and 100 U/ml penicillin, 100 μg/ml streptomycin (Gibco). The cells were cultured at 37° C. in a humidified atmosphere with 10% CO2. 3T3L1 preadipocytes were plated at 1×10^5 cells/well in 6 well plates and incubated at 37° C. in a humidified atmosphere with 10% CO2. The media was removed after 24 hours and the cells were treated with 60 μM GR24 or with 60 μM 1A, 1B, 5A, 5B, 6A, or 7A and incubated for 24 hours at 37° C. in a humidified atmosphere with 10% CO2. In all experiments, the controls were treated with the same volume of DMSO as was used to dissolve compounds in compound-treated cells to show and ensure that the actual change in protein expression in different treatments was only due to the compounds […]. The media was removed, cells were washed with PBS and cell lysates were collected on ice. Proteins were extracted using RIPA buffer along with protease and phosphatase inhibitors. Lysates were centrifuged for 30 min at high speed; supernatant was collected and stored at −70° C. until further analysis.

phospho-ACC = phospho-ACC expression, immunoblot in 3T3 L1 preadipocytes; type: cell-based; conditions: 3T3 L1 preadipocytes, 60 μM, 24 hours
[2] = system: mitochondria of 3T3L1 preadipocytes; assay: Mitochondrial staining with MitoTracker green, confocal microscopy; type: cell-based; conditions: 60 μM, 24 hours
Experimental: The 3T3L1 preadipocytes were plated onto Ibidi u-slide 8 well plates at 1.6×10^4 cells/well and incubated at 37° C. in a humidified atmosphere with 10% CO2. The media was removed after 24 hours, the cells were treated with 60 μM GR24 and incubated for 24 hours at 37° C. in a humidified atmosphere with 10% CO2. After 24 hours of treatment, staining of mitochondria was done using 200 nM MitoTracker Mitochondrion-Selective Probes (Green FM probes Cat.#M7514, Invitrogen) according to the manufacturer's instructions. The cells were observed using a confocal microscope and images were taken at 40× oil immersion.
Preadipocytes were treated with DMSO (Vehicle control) (FIG. 5A), 60 μM resveratrol (FIG. 5B) or 60 μM strigolactone analog GR24 (FIG. 5C) for 24 hours. Next, preadipocytes were stained with MitoTracker green and observed under a confocal microscope at 40× oil immersion. […] The white oval shaped structures are nucleus and the white thread-like structures around the nucleus in the cytoplasm are mitochondria. When compared to the control, there was an increase in mitochondrial biogenesis represented by elongated mitochondria, and an increase in mitochondrial activation represented by the intensity of fluorescence, in cells treated with resveratrol and GR24. […] Thus, GR24 enhances both biogenesis and activity of mitochondria, which is necessary to generate ATP.

phospho-AMPK = phospho-AMPK expression / AMPK activation, immunoblot in 3T3 L1 preadipocytes; type: cell-based; conditions: 3T3 L1 preadipocytes, 60 μM, 24 hours
Experimental: as §1
as §2, with “The media was removed after 24 hours and the cells were treated with 60 μM GR24 individually and in combination with 60 resveratrol and 60 μM pinosylvin, and incubated for 24 hours at 37° C. in a humidified atmosphere with 10% CO2.” left out
as §3, §4

SIRT1 [3] = biological target: T1, SIRT1 (Mus musculus, UniProt Q923E4); conditions: mice; cited from earlier work
T1 construct: host or cells: mice (in vivo)
T1 sequence (Q923E4 1-737): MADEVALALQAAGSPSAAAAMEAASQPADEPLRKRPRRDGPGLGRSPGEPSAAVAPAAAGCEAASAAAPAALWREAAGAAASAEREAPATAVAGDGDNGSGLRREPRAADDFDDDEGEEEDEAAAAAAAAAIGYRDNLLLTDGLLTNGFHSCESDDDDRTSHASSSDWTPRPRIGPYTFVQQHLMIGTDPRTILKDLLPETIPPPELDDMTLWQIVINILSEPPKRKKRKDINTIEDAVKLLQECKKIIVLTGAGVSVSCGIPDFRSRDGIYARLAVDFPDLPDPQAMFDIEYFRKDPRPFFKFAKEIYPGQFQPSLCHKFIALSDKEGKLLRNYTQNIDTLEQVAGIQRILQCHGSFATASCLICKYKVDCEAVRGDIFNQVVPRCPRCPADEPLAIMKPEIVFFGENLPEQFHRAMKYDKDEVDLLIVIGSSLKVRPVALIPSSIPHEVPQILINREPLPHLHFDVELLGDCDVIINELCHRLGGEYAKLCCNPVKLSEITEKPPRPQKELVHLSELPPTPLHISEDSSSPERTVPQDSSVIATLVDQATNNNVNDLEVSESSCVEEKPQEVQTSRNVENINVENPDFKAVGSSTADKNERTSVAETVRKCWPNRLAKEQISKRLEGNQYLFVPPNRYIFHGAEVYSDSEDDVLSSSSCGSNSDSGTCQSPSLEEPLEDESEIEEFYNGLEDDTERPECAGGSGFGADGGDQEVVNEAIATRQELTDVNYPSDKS

Row | Structure (SMILES) | SIRT1 protein expression compared to control (100%) (SIRT1 [1]) | SIRT1 protein expression, Derivative vs. GR24 (SIRT1 [1]) | PGC-1α protein expression compared to control (100%) (PGC-1α) | PGC-1α protein expression, Derivative vs. GR24 (PGC-1α) | phospho-ACC expression (phosphorylation of ACC) compared to control (phospho-ACC) | mitochondrial activation (intensity of fluorescence) compared to control [2] | mitochondrial biogenesis (elongated mitochondria) compared to control [2] | phospho-AMPK expression compared to control (phospho-AMPK) | SIRT1 activity (SIRT1 [3]) | genes responsible for mitochondrial biogenesis (SIRT1 [3])
1 | CCC1=C[C@H](O/C=C2/C(=O)O[C@@H]3c4ccccc4C[C@H]23)OC1=O [Compound 1A] | 1A 186% | +11% | 1A 186% | +11% |  |  |  |  |  | 
2 | CCC1=C[C@H](O/C=C2/C(=O)O[C@H]3c4ccccc4C[C@@H]23)OC1=O [Compound 1B] | 1B 215% | +31% | 1B 215% | +31% |  |  |  |  |  | 
3 | CC1=C[C@H](O/C=C2/C(=O)O[C@H]3c4c(C)cccc4C[C@@H]23)OC1=O [Compound 5B] | 5B 327% | +48% | 5B 327% | +48% |  |  |  |  |  | 
4 | COc1cccc2c1[C@H]1OC(=O)/C(=C/O[C@H]3C=C(C)C(=O)O3)[C@H]1C2 [Compound 6A] | 6A 206% | +38% | 6A 206% | +38% |  |  |  |  |  | 
5 | COc1ccc(C)c2c1C[C@@H]1/C(=C\O[C@H]3C=C(C)C(=O)O3)C(=O)O[C@H]21 [Compound 7A] | 7A 218% | +30% | 7A 218% | +30% |  |  |  |  |  | 
6 | Oc1ccc(/C=C/c2cc(O)cc(O)c2)cc1 [resveratrol, 3,5,4″-trans-trihydroxystilbene] |  |  |  |  | no change | increase | increase | significant increase; also recorded: increased | increases | stimulates
